Read-outs that look alike come from different tables or passages of the source. Numbered stars: 1 amine (or outer) side, 2 acyl side, 3 side chain; on linkers, the order of the positions; unused ones are H or OH. Bridge positions count the residues as written; N and C are the ends. Ends that are not written are not given here. Peptide text beside a SMILES is read from it. TBMB = c1c(C[*:1])cc(C[*:3])cc1C[*:2]
How the values were obtained:
uPA [1] = molecular target: T1, uPA (Homo sapiens, UniProt P00749); conditions: literature; cited from earlier work
[2] = tested on: murine lung carcinoma model; conditions: literature; cited from earlier work
tPA = tPA (Homo sapiens, UniProt P00750); conditions: literature; cited from earlier work
plasma kallikrein = plasma kallikrein (Homo sapiens, UniProt P03952); conditions: literature; cited from earlier work
factor Xa = conditions: literature; cited from earlier work
thrombin = conditions: literature; cited from earlier work
MDA-MB-231 cells = assay: Cell viability assay (CellTiter-Glo, ATP concentration); type: cell-based, human; conditions: 24 hrs, UK18 1-100 µM
Protocol: MDA-MB-231 human breast adenocarcinoma cells (ATCC) were cultured in RPMI medium (RPMI-1640 containing 25 mM HEPES and L-glutamine; NEAA, 100X Stock, and 1 unit/ml penstrep, 20'000 units/ml penicillin and 20'000 units/ml streptomycin stock, Lonza, Visp, Switzerland) supplemented with 5% v/v fetal calf serum (FCS, Lonza) at 37 °C in a humidified 5% CO2/95% air atmosphere.
The effect of UK18 on the MDA-MB-231 cell viability was measured by using the CellTiter-Glo Luminescent Cell Viability Assay (Promega, Madison, WI, USA). The assay measures the number of viable cells in culture based on the ATP concentration. 200 µL of 2.0 x 10^5 MDA-MB-231 cells/ml in RPMI media (FCS-free) supplemented with 0.2% w/v BSA were inoculated at a density of 4.0 x 10^4 cells per well in 96-well opaque walled polystyrene plate tissue culture treated (Corning Incorporated, Corning, NY, USA) for 24 hrs at 37 °C in a humidified 5% CO2/95% air atmosphere. The culture supernatant was then removed and 100 µl of new RPMI media (FCS-free) supplemented with 0.2% w/v BSA containing different three-fold dilution concentrations of UK18 (1, 3.3, 10, 33 and 100 µM) were added to the cells and the plate incubated for 24 hrs at 37 °C in a humidified 5% CO2/95% air atmosphere. […] The luminescence signal was finally recorded using a Tristar LB 941 microplate reader (Berthold Technologies, Bad Wildbad, Germany). […]

uPA [3] = molecular target: T1, uPA; assay: Activity determination of chemically synthesized inhibitors, residual protease activity; type: biochemical; set-up: human uPA (UPA-LMW, from human urine, 33 kDa); purchased Molecular Innovations, Novi, MI, USA UPA-LMW; host or cells: human urine; conditions: synthetic peptide-TBMB conjugate, pH 7.4, 25°C
Protocol: (§1) Peptides with a free amine at the N-terminus and an amide at the C-terminus were chemically synthesized on a 50 mg to 1 g scale by solid phase chemistry (JPT Peptide Technologies, Berlin, Germany or GL Biochem Ltd., Shanghai, China). The crude peptides (1 mM) in 1 ml 5% v/v DMSO, 65% v/v 20 mM NH4HCO3, pH 8.0 and 30% v/v ACN, were reacted with TBMB (1.2 mM) for 1 hr at 30 °C. The reaction product was purified by preparative reversed-phase high performance liquid chromatography (HPLC) system (PrepLC 4000, Waters, Millford, MA, USA) and a Vydac C18 (218TP) column (22 x 250 mm) (Grace & Co., USA). At a flow rate of 20 ml/min, a linear gradient was applied with a mobile phase composed of eluant A (0.1% v/v aqueous trifluoroacetic acid (TFA) solution, 99.9 % v/v H2O) and eluant B (94.9% v/v ACN, 5% v/v H2O and 0.1 % v/v TF A). The purified peptides were freeze-dried and dissolved in H2O for activity measurements.
(§2) Residual activities were measured in buffer containing 10 mM Tris-Cl, pH 7.4, 150 mM NaCl, 10 mM MgCl2, 1mM CaCl2, 0.1% w/v BSA, 0.01% v/v Triton-X100 and 5% v/v DMSO in volume of […]. […] Absorption and fluorescence intensity were measured with a Spectramax absorption plate reader (recording at 410 nm; Molecular Devices, USA) and a Spectramax Gemini fluorescence plate reader (excitation at 355 nm, emission at 460 nm; Molecular Devices, USA), respectively. […]

Murine uPA = molecular target: T2, Murine uPA (Mus musculus, UniProt P06869); assay: Specificity determination of chemically synthesized inhibitors, residual protease activity; type: biochemical; conditions: murine uPA versus human uPA
T2 construct: mouse uPA (MUPA-LMW, recombinantly produced in insect cells, 31 kDa); purchased Molecular Innovations, Novi, MI, USA MUPA-LMW; host or cells: insect cells
Protocol: as §1, §2

uPA [4] = molecular target: T1, uPA; conditions: literature, cited from earlier work

Sequence of tPA (P00750 36-562, species assumed): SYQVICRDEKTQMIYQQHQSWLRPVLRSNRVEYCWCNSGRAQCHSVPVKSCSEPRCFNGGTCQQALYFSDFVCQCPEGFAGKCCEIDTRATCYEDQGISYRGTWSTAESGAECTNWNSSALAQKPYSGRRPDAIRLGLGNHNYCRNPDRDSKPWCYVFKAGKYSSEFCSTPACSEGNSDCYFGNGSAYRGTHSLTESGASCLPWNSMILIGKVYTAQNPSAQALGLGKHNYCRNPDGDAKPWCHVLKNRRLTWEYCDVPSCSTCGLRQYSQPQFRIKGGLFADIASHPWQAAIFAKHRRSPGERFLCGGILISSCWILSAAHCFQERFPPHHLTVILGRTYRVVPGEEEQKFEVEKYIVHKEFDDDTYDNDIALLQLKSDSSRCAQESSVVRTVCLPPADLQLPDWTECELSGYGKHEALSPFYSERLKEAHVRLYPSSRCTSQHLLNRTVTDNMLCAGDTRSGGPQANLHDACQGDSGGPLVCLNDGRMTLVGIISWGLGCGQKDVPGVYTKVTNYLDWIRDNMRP
T2 sequence (P06869 180-433 limits assumed): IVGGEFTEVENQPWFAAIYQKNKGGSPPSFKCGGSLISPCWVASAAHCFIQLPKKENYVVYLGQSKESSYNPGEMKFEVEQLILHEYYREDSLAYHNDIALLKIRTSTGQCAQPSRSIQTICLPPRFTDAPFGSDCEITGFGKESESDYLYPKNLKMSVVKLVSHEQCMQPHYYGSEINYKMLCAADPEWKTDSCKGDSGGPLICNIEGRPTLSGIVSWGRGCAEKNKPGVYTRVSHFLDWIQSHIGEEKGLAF
Sequence of plasma kallikrein (P03952 391-638 limits assumed, species assumed): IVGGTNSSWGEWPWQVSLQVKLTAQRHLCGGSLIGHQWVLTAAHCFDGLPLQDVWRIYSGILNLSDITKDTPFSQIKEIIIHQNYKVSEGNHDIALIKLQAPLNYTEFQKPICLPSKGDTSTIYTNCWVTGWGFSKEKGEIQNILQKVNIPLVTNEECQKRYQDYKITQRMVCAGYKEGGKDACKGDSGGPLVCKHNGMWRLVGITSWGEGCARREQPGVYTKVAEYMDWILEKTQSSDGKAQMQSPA
Sequence of plasma kallikrein (P03952 20-390 partner limits assumed, species assumed): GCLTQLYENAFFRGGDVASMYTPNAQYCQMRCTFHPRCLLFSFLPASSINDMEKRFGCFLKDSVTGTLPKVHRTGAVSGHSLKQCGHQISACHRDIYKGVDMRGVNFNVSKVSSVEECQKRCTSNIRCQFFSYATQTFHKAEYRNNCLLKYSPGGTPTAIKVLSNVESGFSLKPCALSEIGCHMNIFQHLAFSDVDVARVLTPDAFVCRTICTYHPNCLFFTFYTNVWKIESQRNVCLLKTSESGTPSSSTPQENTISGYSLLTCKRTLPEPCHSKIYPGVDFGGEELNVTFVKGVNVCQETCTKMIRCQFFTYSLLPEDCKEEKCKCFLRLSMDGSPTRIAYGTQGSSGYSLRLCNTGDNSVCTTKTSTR

## N=C(N)c1ccc(CNC(=O)[C@H](CO)NC(=O)[C@@H](CO)NS(=O)(=O)Cc2ccccc2)cc1 [CJ-463, benzylsulfonyl-D-Ser-Ser-4-amidinobenzylamide]
uPA [1]
  Ki: 20 nM
[2]
  primary tumour growth and metastasis formation: reduce primary tumour growth and metastasis formation
tPA
  inhibition: does not inhibit significantly
Plasma kallikrein
  inhibition: does not inhibit significantly
Factor Xa
  inhibition: does not inhibit significantly
thrombin
  inhibition: does not inhibit significantly

## CC(C)[C@@H]1NC(=O)[C@H](CCC(=O)O)NC(=O)[C@H](Cc2ccc(O)cc2)NC(=O)[C@H](CCCN=C(N)N)NC(=O)[C@H](CO)NC(=O)[C@@H](NC(=O)[C@H](C)N)CSCc2cc3cc(c2)CSC[C@H](NC(=O)[C@H](CC(=O)O)NC1=O)C(=O)N[C@@H](CCCN=C(N)N)C(=O)NCC(=O)N[C@@H](CCCN=C(N)N)C(=O)NCC(=O)N[C@@H](CO)C(=O)N[C@@H](C)C(=O)N[C@H](C(=O)NCC(N)=O)CSC3 [UK18] (H-ACSRYEVDCRGRGSACG-NH2; linker 2-9-16 via TBMB)
MDA-MB-231 cells
  cell viability: not toxic
uPA [3]
  IC50: 47.2 nM
uPA [3]; corresponding to the IC50
  Ki: 30.1 nM

## CC(C)[C@@H]1NC(=O)[C@H](CCC(=O)O)NC(=O)[C@H](Cc2ccc(O)cc2)NC(=O)[C@H](CCCNC(=N)N)NC(=O)[C@H](CO)NC(=O)[C@@H](NC(=O)[C@H](C)N)CSCc2cc3cc(c2)CSC[C@H](NC(=O)[C@H](CC(=O)O)NC1=O)C(=O)N[C@@H](CCCNC(=N)N)C(=O)NCC(=O)N[C@@H](CCCNC(=N)N)C(=O)NCC(=O)N[C@@H](CO)C(=O)N[C@@H](C)C(=O)N[C@H](C(=O)NCC(N)=O)CSC3 [UK18] (H-ACSRYEVDCRGRGSACG-NH2; linker 2-9-16 via TBMB)
Murine uPA
  Ki higher than the Ki of human uPA: around 1400 times

## CSWRGLENHRMC (cysteine pairing not given here) [upain-1]
uPA [4]; at pH 6.0
  Ki: 6700 nM
uPA [4]; at physiological pH
  Ki: 29900 nM
